This assay deals with Epiderm construct. In words: Viability of constructs with additives in culture medium before and after vitrification. It is filed as cell-based, Human. The following applies: added to culture medium before and after vitrification, αT and QVD together. As to the method:
Resazurin Assay: Was used to measure the metabolic activity and has the advantage of being non-toxic so constructs can be assessed before and several times after treatment. Resazurin dye (alamarBlue) was used to assess cell viability by measuring the oxidation/reduction reactions that take place within cells. The dye is added directly to the culture wells and the plates were incubated for 3 hours at 37° C. Upon reduction, the dye changes color and this was measured and quantified using a fluorescent microplate reader at an excitation wavelength of 544 nm and an emission wavelength of 590 nm.
The initial vitrification protocol was one that was developed for use with vein segments and rings. The process uses a 6 step (15-minute incubation) protocol to add the cryoprotectant (CPA) solution into the construct. The insert is then left in a glass scintillation vial in 1.5 mL vitrification solution with 0.3 mL solution inside the insert. The vials are cooled rapidly to −100° C. then slowly cooled to −135° C. where they are stored until rewarming. During rewarming, the samples are warmed slowly to −100° C. then rapidly to room temperature. The vitrification solution is removed using 7 sequential removal steps at 15 minutes each (FIG. 4, original protocol). Several changes were made to this protocol to produce better and sustainable viability for the Epiderm construct.
A series of changes were made to how the vitrification solution was loaded and unloaded from the construct. These changes included shorter incubation steps (5 minutes instead of 15), using a lower concentration of cryoprotectant to load the full-strength vitrification solution into the construct and also a more mechanical change that involved dilution of the full strength vitrification solution to half its concentration by a simple dilution step as opposed to removal from one solution to the next. This shortened the amount of time that the construct was exposed to the full-strength vitrification solution reducing potential cytotoxicity caused by exposure to the vitrification solution (modified protocol).
The arrived at protocol starts with an overnight incubation with αT and QVD. The next day, the constructs are vitrified using the 6-step addition protocol, 5 minutes each step, to add the cryoprotectant (CPA) solution into the construct. The insert is then left in the final vitrification solution with 0.3 mL solution inside the insert. The vials are cooled rapidly to −100° C. then slowly cooled to −135° C. where they are stored until rewarming. During rewarming, the samples are warmed slowly to −100° C. then rapidly to room temperature. The vitrification solution is removed using 7 sequential removal steps at 5 minutes each. […]

Results on two compounds are retold here after patent publication US20230149919A1, “CASSETTE FOR PRESERVATION OF NATURAL AND BIOENGINEERED TISSUES” (TISSUE TESTING TECHNOLOGIES LLC, priority 2021, published 2023).

`CC(C)[C@H](NC(=O)c1ccc2ccccc2n1)C(=O)N[C@@H](CC(=O)O)C(=O)COc1c(F)cccc1F` [Q-VD-OPH, quinoline-Val-Asp-difluorophenoxymethyl ketone]: the “Effect of additive on construct viability” value (from here on “Effect of additive”) is “improved viability”. Also, where the note is “listed as QVD”, the “Effect of additive” value is reported as “significant improvement”.

As to `Cc1c(C)c2c(c(C)c1O)CC[C@@](C)(CCC[C@H](C)CCC[C@H](C)CCCC(C)C)O2` [α-tocopherol], the “Effect of additive” value is reported as “improved viability”. Further, for the setting “listed as αT”, the “Effect of additive” value is “significant improvement”.
